Laboratory results reported in ChEMBL document CHEMBL1201862, “PubChem BioAssay data set” (2004).
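Interpolation was linear, between the two tested concentrations surrounding the appropriate level; five concentrations were tested over 48 hours in 96-well plates. The concentration for 50% growth inhibition is given as GI50.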 Activity calls are given as the source filed them. Cut-off read from the data, not from the text of the source: active = GI50 up to about 1.1 µM and inactive = higher.

What was measured:
Assay in all cases: NCI-60 cell line screen, 48 h
NCI-H226 = tested on: NCI-H226
HT-29 = tested on: HT-29
SF-268 = tested on: SF-268
LOX IMVI = tested on: LOX IMVI
NCI-H522 = tested on: NCI-H522
SK-MEL-2 = tested on: SK-MEL-2
MDA-N = tested on: MDA-N
HCT-15 = tested on: HCT-15
OVCAR-8 = tested on: OVCAR-8
UACC-257 = tested on: UACC-257
NCI/ADR-RES = tested on: NCI/ADR-RES
MCF7 = tested on: MCF7
786-0 = tested on: 786-0
HOP-62 = tested on: HOP-62
RXF 393 = tested on: RXF 393
RPMI-8226 = tested on: RPMI-8226
OVCAR-3 = tested on: OVCAR-3
HL-60 = tested on: HL-60
HOP-92 = tested on: HOP-92
SNB-75 = tested on: SNB-75

Structure (SMILES)	GI50 (NCI-H226)	GI50 (HT-29)	GI50 (SF-268)	GI50 (LOX IMVI)	GI50 (NCI-H522)	GI50 (SK-MEL-2)	GI50 (MDA-N)	GI50 (HCT-15) [nM]	GI50 (OVCAR-8)	GI50 (UACC-257)	GI50 (NCI/ADR-RES)	GI50 (MCF7)	GI50 (786-0)	GI50 (HOP-62)	GI50 (RXF 393)	GI50 (RPMI-8226)	GI50 (OVCAR-3)	GI50 (HL-60)	GI50 (HOP-92)	GI50 (SNB-75)
Cc1ccc(-c2n[nH]c(=O)[nH]2)cc1	> 100000 nM (inactive)	> 100000 nM (inactive)	> 100000 nM (inactive)	> 100000 nM (inactive)	> 100000 nM (inactive)	> 100000 nM (inactive)	> 100000 nM (inactive)	> 100000	> 100000 nM (inactive)	> 66100 nM (inactive)	> 100000 nM (inactive)	> 100000 nM (inactive)	> 100000 nM (inactive)	> 100000 nM (inactive)	> 100000 nM (inactive)	> 100000 nM (inactive)	> 100000 nM (inactive)	> 100000 nM (inactive)	44900 nM (inactive)	> 100000 nM (inactive)
C[C@H]1CCC/C=C/[C@@H]2C[C@H](OC(=O)CN(C)C)C[C@H]2[C@H](O)/C=C/C(=O)O1	28.8 nM (active)	105 nM (active)	200 nM (active)	86.1 nM (active)	425 nM (active)	153 nM (active)	135 nM (active)	188	97 nM (active)	109 nM (active)	13.9 nM (active)	187 nM (active)	46.2 nM (active)	210 nM (active)	38.3 nM (active)	303 nM (active)	169 nM (active)	220 nM (active)	1030 nM (active)	155 nM (active)
